Measured values reported in patent US20210045385A1, “PYRIDAZINONE-SUBSTITUTED KETOXIMES AS HERBICIDES” (FMC Corporation, priority 2018, published 2021).

How the values were obtained:
Format in all cases: in vivo
[1] = tested on: barnyardgrass (Echinochloa crus-galli); assay: Test A postemergence, visual plant response rating; conditions: for Barnyardgrass plant response rating (0 to 100 scale): 500 g ai/ha, postemergence, 0 is no effect, 100 is complete control; for Barnyardgrass plant response rating: Postemergence, 125 g ai/ha, 0 to 100 scale (0 no effect, 100 complete control)
How it was run: (§1)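 Greenhouse evaluation, approx. 10 days post-spray. Soil: loam + sand. Postemergence stage: 1–2 leaves, height 2–10 cm. Vehicle: non-phytotoxic solvent blend with surfactant. Score: visual injury on a 0 (no effect) to 100 (complete control) scale.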

[2] = tested on: wheat (Triticum aestivum); assay: Test A postemergence, visual plant response rating; conditions: for Wheat plant response rating: 0 to 100 scale (0 no effect, 100 complete control)
How it was run: as §1

[3] = tested on: Italian ryegrass (Lolium multiflorum); assay: Test A postemergence, visual plant response rating; conditions: for Ryegrass, Italian plant response rating: 125 g ai/ha, 0 to 100 scale (0 no effect, 100 complete control)
How it was run: as §1

[4] = tested on: ragweed (common ragweed, Ambrosia elatior); assay: Test A postemergence, visual plant response rating; conditions: for Ragweed plant response rating (0 to 100 scale): 500 g ai/ha, postemergence, 0 is no effect, 100 is complete control; for Ragweed plant response rating: Postemergence, 125 g ai/ha, 0 to 100 scale (0 no effect, 100 complete control)
How it was run: as §1

[5] = tested on: foxtail, giant (giant foxtail, Setaria faberii); assay: Test A postemergence, visual plant response rating; conditions: for Foxtail, Giant plant response rating (0 to 100 scale): 500 g ai/ha, postemergence, 0 is no effect, 100 is complete control; for Foxtail, Giant plant response rating: Postemergence, 125 g ai/ha, 0 to 100 scale (0 no effect, 100 complete control)
How it was run: as §1

kochia (Kochia scoparia) [6] = assay: Test A postemergence, visual plant response rating; conditions: for Kochia plant response rating (0 to 100 scale): 500 g ai/ha, postemergence, 0 is no effect, 100 is complete control; for Kochia plant response rating: Postemergence, 125 g ai/ha, 0 to 100 scale (0 no effect, 100 complete control)
How it was run: as §1

corn (Zea mays) = assay: Test A postemergence, visual plant response rating; conditions: for Corn plant response rating (0 to 100 scale): 500 g ai/ha, postemergence, 0 is no effect, 100 is complete control; for Corn plant response rating: Postemergence, 125 g ai/ha, 0 to 100 scale (0 no effect, 100 complete control)
How it was run: as §1

[7] = tested on: galium (catchweed bedstraw, Galium aparine); assay: Test A postemergence, visual plant response rating; conditions: for Galium plant response rating (0 to 100 scale): 500 g ai/ha, postemergence, 0 is no effect, 100 is complete control; for Galium plant response rating: Postemergence, 125 g ai/ha, 0 to 100 scale (0 no effect, 100 complete control)
How it was run: as §1

[8] = tested on: pigweed (Amaranthus retroflexus); assay: Test A postemergence, visual plant response rating; conditions: for Pigweed plant response rating (0 to 100 scale): 500 g ai/ha, postemergence, 0 is no effect, 100 is complete control; for Pigweed plant response rating: Postemergence, 125 g ai/ha, 0 to 100 scale (0 no effect, 100 complete control)
How it was run: as §1

[9] = tested on: blackgrass (Alopecurus myosuroides); assay: Test A postemergence, visual plant response rating; conditions: for Blackgrass plant response rating (0 to 100 scale): 500 g ai/ha, postemergence, 0 is no effect, 100 is complete control; for Blackgrass plant response rating: Postemergence, 125 g ai/ha, 0 to 100 scale (0 no effect, 100 complete control)
How it was run: as §1

[10] = tested on: barnyardgrass (Echinochloa crus-galli); assay: Test B flooded paddy test, visual plant response rating; conditions: 250 g ai/ha, Flood, applied to paddy water, 2-leaf stage, evaluated after 13 to 15 days
How it was run: (§2)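 Flooded-pot treatment: water 3 cm over the soil, chemical delivered into that water, depth unchanged for the duration. Assessed by eye versus controls following 13–15 greenhouse days; plants were at 2 leaves when dosed.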

[11] = tested on: sedge, umbrella (small-flower umbrella sedge, Cyperus difformis); assay: as above; conditions: 250 g ai/ha, Flood, applied to paddy water, 2-leaf stage, evaluated after 13 to 15 days
How it was run: as §2

[12] = tested on: ducksalad (Heteranhera limosa); assay: as above; conditions: 250 g ai/ha, Flood, applied to paddy water, 2-leaf stage, evaluated after 13 to 15 days
How it was run: as §2

rice (Oryza sativa) = assay: as above; conditions: 250 g ai/ha, Flood, applied to paddy water, 2-leaf stage, evaluated after 13 to 15 days
How it was run: as §2

[13] = tested on: barnyardgrass (Echinochloa crus-galli); assay: Test A preemergence, visual plant response rating; conditions: for Barnyardgrass plant response rating: 125 g ai/ha, preemergence, 0 to 100 scale, 0 no effect, 100 complete control; for Barnyardgrass plant response rating (0 to 100 scale): 500 g ai/ha Preemergence, approx. 10 days
How it was run: as §1

[14] = tested on: Italian ryegrass (Lolium multiflorum); assay: Test A preemergence, visual plant response rating; conditions: for Ryegrass, Italian plant response rating: 125 g ai/ha, preemergence, 0 to 100 scale, 0 no effect, 100 complete control; for Ryegrass, Italian plant response rating (0 to 100 scale): 500 g ai/ha Preemergence, approx. 10 days
How it was run: as §1

[15] = tested on: ragweed (common ragweed, Ambrosia elatior); assay: Test A preemergence, visual plant response rating; conditions: for Ragweed plant response rating: 125 g ai/ha, preemergence, 0 to 100 scale, 0 no effect, 100 complete control; for Ragweed plant response rating (0 to 100 scale): 500 g ai/ha Preemergence, approx. 10 days
How it was run: as §1

[16] = tested on: foxtail, giant (giant foxtail, Setaria faberii); assay: Test A preemergence, visual plant response rating; conditions: for Foxtail, Giant plant response rating: 125 g ai/ha, preemergence, 0 to 100 scale, 0 no effect, 100 complete control; for Foxtail, Giant plant response rating (0 to 100 scale): 500 g ai/ha Preemergence, approx. 10 days
How it was run: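 Greenhouse pot test in loam–sand soil mix: compound in a surfactant-containing non-phytotoxic solvent applied preemergence (directed soil spray) or postemergence (one- to two-leaf plants, 2–10 cm). Injury scored visually after ~10 days, 0–100.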

kochia (Kochia scoparia) [17] = assay: Test A preemergence, visual plant response rating; conditions: for Kochia plant response rating: 125 g ai/ha, preemergence, 0 to 100 scale, 0 no effect, 100 complete control; for Kochia plant response rating (0 to 100 scale): 500 g ai/ha Preemergence, approx. 10 days
How it was run: as §1

[18] = tested on: pigweed (Amaranthus retroflexus); assay: Test A preemergence, visual plant response rating; conditions: for Pigweed plant response rating: 125 g ai/ha, preemergence, 0 to 100 scale, 0 no effect, 100 complete control; for Pigweed plant response rating (0 to 100 scale): 500 g ai/ha Preemergence, approx. 10 days
How it was run: as §1

[19] = 500 g ai/ha, postemergence, 0 is no effect, 100 is complete control

Structure (SMILES) | Barnyardgrass plant response rating (0 to 100 scale) [1] | Barnyardgrass plant response rating [1] | Ryegrass, Italian plant response rating (0 to 100 scale) [3, 19] | Ragweed plant response rating (0 to 100 scale) [4] | Ragweed plant response rating [4] | Foxtail, Giant plant response rating (0 to 100 scale) [5] | Foxtail, Giant plant response rating [5] | Kochia plant response rating (0 to 100 scale) (kochia (Kochia scoparia) [6]) | Kochia plant response rating (kochia (Kochia scoparia) [6]) | Corn plant response rating (0 to 100 scale) (corn (Zea mays)) | Corn plant response rating (corn (Zea mays)) | Galium plant response rating (0 to 100 scale) [7] | Galium plant response rating [7] | Pigweed plant response rating (0 to 100 scale) [8] | Pigweed plant response rating [8] | Blackgrass plant response rating (0 to 100 scale) [9] | Blackgrass plant response rating [9] | Plant response rating, Barnyardgrass (0 to 100 scale, 0 is no effect, 100 is complete control) [10] | Plant response rating, Sedge, Umbrella (0 to 100 scale, 0 is no effect, 100 is complete control) [11] | Plant response rating, Ducksalad (0 to 100 scale, 0 is no effect, 100 is complete control) [12] | also measured
CO/N=C(/c1c(O)c(C)nn(C)c1=O)c1ccc(OC)c2ccccc12 [Compound 142] | 10 | 10 | 70 | 30 | 0 | 30 | 20 | 30 | 0 | 30 | 0 | 70 | 50 | 10 | 10 | 80 | 30 | 0 | 0 | 0 | Wheat plant response rating ([2]; Postemergence, 500 g ai/ha): 10; Wheat plant response rating (0 to 100 scale) ([2]; Postemergence, approx. 10 days): 0; Ryegrass, Italian plant response rating (0 to 100 scale) ([3]; Postemergence, rate not given, approx. 10 days): 0; Plant response rating, Rice (0 to 100 scale, 0 is no effect, 100 is complete control) (rice (Oryza sativa)): 0; Barnyardgrass plant response rating [13]: 0; Barnyardgrass plant response rating (0 to 100 scale) [13]: 50; Ryegrass, Italian plant response rating [14]: 0; Ryegrass, Italian plant response rating (0 to 100 scale) [14]: 20; Ragweed plant response rating [15]: 0; Ragweed plant response rating (0 to 100 scale) [15]: 20; Foxtail, Giant plant response rating [16]: 10; Foxtail, Giant plant response rating (0 to 100 scale) [16]: 60; Kochia plant response rating (kochia (Kochia scoparia) [17]): 0; Kochia plant response rating (0 to 100 scale) (kochia (Kochia scoparia) [17]): 0; Pigweed plant response rating [18]: 0; Pigweed plant response rating (0 to 100 scale) [18]: 0
CO/N=C(\c1c(C)cccc1F)c1c(O)c(C)nn(C)c1=O [Compound 39] | 10 | 0 | 0 | 60 | 0 | 0 | 0 | 0 | 0 | 20 | 0 | 70 | 40 | 10 | 0 | 0 | 0 | 0 | 0 | 0 | Wheat plant response rating (0 to 100 scale) [2, 19]: 10; Wheat plant response rating ([2]; Postemergence, 125 g ai/ha): 0; Ryegrass, Italian plant response rating ([3]; Postemergence): 0; Plant response rating, Rice (0 to 100 scale, 0 is no effect, 100 is complete control) (rice (Oryza sativa)): 0; Barnyardgrass plant response rating [13]: 0; Barnyardgrass plant response rating (0 to 100 scale) [13]: 0; Ryegrass, Italian plant response rating [14]: 0; Ryegrass, Italian plant response rating (0 to 100 scale) [14]: 0; Ragweed plant response rating [15]: 0; Ragweed plant response rating (0 to 100 scale) [15]: 30; Foxtail, Giant plant response rating [16]: 0; Foxtail, Giant plant response rating (0 to 100 scale) [16]: 0; Kochia plant response rating (kochia (Kochia scoparia) [17]): 0; Kochia plant response rating (0 to 100 scale) (kochia (Kochia scoparia) [17]): 0; Pigweed plant response rating [18]: 0; Pigweed plant response rating (0 to 100 scale) [18]: 0
CO/N=C(\c1sccc1C)c1c(O)c(C)nn(C)c1=O [Compound 42] | 10 | 0 | 70 | 50 | 40 | 10 | 0 | 50 | 20 | 0 | 0 | 60 | 70 | 80 | 60 | 0 | 0 | 15 | 20 | 20 | Wheat plant response rating (0 to 100 scale) [2, 19]: 0; Wheat plant response rating ([2]; Postemergence, 125 g ai/ha): 0; Ryegrass, Italian plant response rating ([3]; Postemergence): 50; Plant response rating, Rice (0 to 100 scale, 0 is no effect, 100 is complete control) (rice (Oryza sativa)): 10; Barnyardgrass plant response rating [13]: 0; Barnyardgrass plant response rating (0 to 100 scale) [13]: 0; Ryegrass, Italian plant response rating [14]: 0; Ryegrass, Italian plant response rating (0 to 100 scale) [14]: 20; Ragweed plant response rating [15]: 60; Ragweed plant response rating (0 to 100 scale) [15]: 80; Foxtail, Giant plant response rating [16]: 0; Foxtail, Giant plant response rating (0 to 100 scale) [16]: 0; Kochia plant response rating (kochia (Kochia scoparia) [17]): 0; Kochia plant response rating (0 to 100 scale) (kochia (Kochia scoparia) [17]): 10; Pigweed plant response rating [18]: 0; Pigweed plant response rating (0 to 100 scale) [18]: 20
